Assays:
[1] = system: neuropathic pain; conditions: oral administration, in general; cited from earlier work
[2] = system: motor coordination; test: motor coordination test (mice rotating rod test, Rota-rod); format: in vivo, mouse; conditions: 30 mg/kg orally, 16 rpm, cut-off 60 seconds, FIG. 4
Protocol: The effect of the compound of Example 1 on motor coordination was evaluated by means of mice rotating rod test.
Five male BALB/c, 6-7 weeks old mice per group were used. The mouse was trained for 2 or more days so that it could remain on the Rota-rod treadmill (Ugo Basile) in 3 cm in diameter rotating at 16 rpm for at least 60 seconds when it was placed on the rod with the head directed against the direction of rotation. Before the evaluation, three trials were conducted with 10 min or more intervals and the mice which could remain on the rod more than 60 seconds in all three times were selected for the evaluation. The selected mice were divided into test groups.
The time obtained in the third trial was used as the before administration value. Mice were orally received 30 mg/kg of the compound of Example 1 or gabapentin and placed on the rotating rod. The duration of time the mouse remained on the rod was recorded. A cut-off time of 60 seconds was employed and when an animal could remain more than 60 seconds, the time was recorded as 60 seconds.

## NCC1(CC(=O)O)CCCCC1 [gabapentin]
[1]
  onset of analgesic action: 1 to 2 h
[2]
  duration of time the mouse remained on the rotating rod: no reduction of the remaining time

— patent US20080021042A1, “Composition For Controlling Neuropathic Pain” (priority 2004, published 2008)
